Source: patent US6313171A, “Method for preventing or treating elevated blood lipid level-related diseases by administering cinnamic acid derivatives” (Korea Research Institute of Bioscience & Biotechnology, priority 1998, dated 2001)

Experiments:
[1] = test system: liver; experiment: Prevention of hepatic diseases: microscopic fatty liver grading in rabbits; format: in vivo, rabbit (New Zealand White); details: for microscopic features of the liver: FIGS. 2A-2E, control: many cells containing excessive fat around the central vein; for fatty liver grade (1+ to 4+): grades 1+(0-25%), 2+(26-50%), 3+(51-75), 4+(76-100%), rabbits, 8 weeks, Control 3.2 ± 0.3
Protocol: 30 three-month-old male New Zealand White rabbits (Yeonam Horticulture and Animal Husbandry College, Korea), each weighing about 2.5 to 2.6 kg, were raised under condition of temperature 20±2° C., relative humidity 55±5%, and photoperiod 12L/12D. The rabbits were divided into 5 groups and 5 groups of rabbits were fed with 5 different diets, i.e., RC4 diet (Oriental Yeast Co., Japan) containing 1% cholesterol (Control group); 1% cholesterol plus 1 mg/kg Lovastatin® (Merck, U.S.A.) (Lovastatin group); 1% cholesterol plus 0.1% 4-hydroxycinnamic acid (4-hydroxycinnamic acid group); 1% cholesterol plus 0.1% 3,4-dihydroxycinnamic acid (3,4-dihydroxycinnamic acid group); and 1% cholesterol plus 0.1% 3,4-dihydroxyhydrocinnamic acid (3,4-dihydroxyhydrocinnamic acid group), respectively. RC4 diet comprises 7.6% moisture, 22.8% crude protein, 2.8% crude fat, 8.8% crude ash, 14.4% crude cellulose and 43.6% soluble nitrogen-free substances. Cinnamic acid derivatives were purchased from Sigma Chemical Co. (St. Louis, Mo.).
The rabbits were fed for 8 weeks while being allowed free access to the diets and water.

[2] = molecular target: T1, ACAT (Rattus norvegicus, UniProt Q7TQM4); experiment: ACAT assay, liver microsomes of the fed rats; format: biochemical; details: liver microsomes of rats fed 0.1% in 1% cholesterol diet; Control 0
T1 construct: microsomes were separated from liver tissues to be used as an enzyme source; from tissue; host or cells: rat liver microsomes
T1 sequence (Q7TQM4 1-524): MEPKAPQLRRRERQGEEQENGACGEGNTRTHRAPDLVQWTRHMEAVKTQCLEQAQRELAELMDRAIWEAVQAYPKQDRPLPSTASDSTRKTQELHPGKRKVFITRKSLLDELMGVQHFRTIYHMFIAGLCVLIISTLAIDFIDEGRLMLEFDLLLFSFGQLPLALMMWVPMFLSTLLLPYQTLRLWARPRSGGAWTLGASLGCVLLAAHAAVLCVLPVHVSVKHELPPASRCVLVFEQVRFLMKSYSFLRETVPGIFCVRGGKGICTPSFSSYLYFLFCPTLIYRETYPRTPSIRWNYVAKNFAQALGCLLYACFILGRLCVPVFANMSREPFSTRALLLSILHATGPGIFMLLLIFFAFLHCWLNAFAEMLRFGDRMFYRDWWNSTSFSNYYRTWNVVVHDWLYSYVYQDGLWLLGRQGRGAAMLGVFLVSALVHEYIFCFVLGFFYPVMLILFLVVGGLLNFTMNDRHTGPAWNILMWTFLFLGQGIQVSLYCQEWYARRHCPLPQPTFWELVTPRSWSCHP
Protocol: To determine the effect of feeding cinnamic acid derivatives to rats on the activity of ACAT, microsomes were separated from liver tissues to be used as an enzyme source.
1 g each of the livers taken from each group of rats of Example 2 was homogenized in 5 ml of homogenization medium (0.1 M KH2 PO4, pH 7.4, 0.1 mM EDTA and 10 mM β-mercaptoethanol). The homogenate was centrifuged at 3,000×g for 15 min. at 4° C. and the supernatant thus obtained was centrifuged at 15,000×g for 15 min. at 4° C. to obtain a supernatant. The supernatant was put into an ultracentrifuge tube (Beckman) and centrifuged at 100,000×g for 1 hour at 4° C. to obtain microsomal pellets, which were then suspended in 3 ml of the homogenization medium and centrifuged at 100,000×g for 1 hour at 4° C. The pellets thus obtained were suspended in 1 ml of the homogenization medium. The protein concentration of the resulting suspension was determined by Lowry's method and then adjusted to 4 to 8 mg/ml. The resulting suspension was stored in a deep freezer (Biofreezer, Forma Scientific Inc.).
6.67 μl of 1 mg/ml cholesterol solution in acetone was mixed with 6 μl of 10% Triton WR-1339 (Sigma Co.) in acetone and, then, acetone was removed from the mixture by evaporation under a nitrogen flow. Distilled water was added to the resulting mixture to adjust the concentration of cholesterol to […].
Added to 10 μl of the resulting aqueous cholesterol solution were 10 μl of 1 M KH2 PO4 (pH 7.4), 5 μl of 0.6 mM bovine serum albumin (BSA), 10 μl of microsome solution obtained in (Step 1) and 55 μl of distilled water (total 90 μl). The mixture was pre-incubated in a water bath at 37° C. for 30 min. […]
200 μl of the resulting supernatant was put in a scintillation bottle and 4 ml of scintillation fluid (Lumac) was added thereto. The mixture was assayed for radioactivity with 1450 Microbeta liquid scintillation counter (Wallacoy, Finland). ACAT activity was calculated as picomoles of cholesteryl oleate synthesized per min. per mg protein (pmoles/min/mg protein).

Compound | microscopic features of the liver [1] | fatty liver grade (1+ to 4+) [1] | Inhibition on ACAT activity [2] [%]
O=C(O)/C=C/c1ccc(O)c(O)c1 [3,4-dihydroxycinnamic acid] | almost all liver cells are of a normal shape | 2.6 ± 0.3 | 7
O=C(O)/C=C/c1ccc(O)cc1 [4-Hydroxycinnamic acid, 4-hydroxycinnamic acid] | almost all liver cells are of a normal shape | 2.7 ± 0.3 | 17
O=C(O)CCc1ccc(O)c(O)c1 [3,4-dihydroxyhydrocinnamic acid] | almost all liver cells are of a normal shape | 2.6 ± 0.3 | 20
